Measurements from US20260207640A1, “Polyphenolic Boronates and Use Thereof” (The Medical College of Wisconsin, Inc., priority 2022, published 2026).
Entries after “also recorded” stand apart in the source; their conditions may differ.

Assays:
[1] = test system: arginase-1 and NOS-2 (or iNOS); details: cited from earlier work
[2] = test system: glioblastoma (U87MG) cells; test: IncuCyte cell proliferation, glioblastoma cells; type: cell-based, human; details: for antiproliferative effect, boronate versus non-boronated analog: comparison within pair (HNK/HNK-B, Mito-HNK/Mito-HNK-B, MGN/MGN-B, Mito-MGN/Mito-MGN-B)
Protocol: (§1) FIGS. 2A-2C show effects of HNK and HNK-B on the proliferation of glioblastoma (U87MG), pancreatic cancer (MiaPaCa-2) cells, and lung cancer (A549) cells. The effects of HNK and HNK-B on the proliferation of U87MG (FIG. 2A), MiaPaCa-2 (FIG. 2B), or A549 (FIG. 2C) cells were monitored in the IncuCyte Live-Cell Analysis system. The IncuCyte analyzer provides real-time updates on cell confluence based on segmentation of high definition-phase contrast images. Representative cell images are shown as segmentation masks, illustrated when control cells reached 90% confluence (vertical solid line). The half maximal inhibitory concentration (IC50) values for U87MG (FIG. 2A), MiaPaCa-2 (FIG. 2B), or A549 (FIG. 2C) cells were determined at the point at which control cells reached ~90% confluence (vertical solid line). Relative cell confluence (control is taken as 100%) is plotted against concentration. Dashed lines represent the fitting curves used to determine the IC50 values as indicated. Data shown are the mean±standard deviation (SD).
(§2) The effects of Mito-HNK and Mito-HNK-B on the proliferation of U87MG (FIG. 3A), MiaPaCa-2 (FIG. 3B), or A549 (FIG. 3C) cells were monitored in the IncuCyte Live-Cell Analysis system. The IncuCyte analyzer provides real-time updates on cell confluence based on segmentation of high definition-phase contrast images. Representative cell images are shown as segmentation masks, illustrated when control cells reached 90% confluence (vertical solid line). The IC50 values for U87MG (FIG. 3A), MiaPaCa-2 (FIG. 3B), or A549 (FIG. 3C) cells were determined at the point at which control cells reached ~90% confluence (vertical solid line). Relative cell confluence (control is taken as 100%) is plotted against concentration. Dashed lines represent the fitting curves used to determine the IC50 values as indicated. Data shown are the mean±SD.
FIGS. 4A-4B show effects of Mito-MGN, Mito-MGN-B, MGN, and MGN-B on the proliferation of glioblastoma cancer (U87MG) cells. The effects of Mito-MGN, Mito-MGN-B, MGN, and MGN-B on the proliferation of U87MG cells were monitored in the IncuCyte Live-Cell Analysis system. The IncuCyte analyzer provides real-time updates on cell confluence based on segmentation of high definition-phase contrast images. Representative cell images are shown as segmentation masks, illustrated in black when control cells reached 90% confluence. Full growth curves of Mito-MGN and Mito-MGN-B are shown in panel (FIG. 4A). The IC50 values were determined at the point at which control cells reached ~90% confluence. Relative cell confluence (control is taken as 100%) is plotted against concentration. Dashed lines in FIG. 4B represent the fitting curves used to determine the IC50 values as indicated for Mito-MGN and Mito-MGN-B (left panel) and for MGN and MGN-B (right panel). Data shown are the mean±SD.
(§3) The U87MG (ATCC Cat #HTB-14, human glioblastoma cancer cells), A549 (ATCC Cat #CCL-185, human lung cancer cells), and MiaPaCa-2 (ATCC Cat #CRL-1420, human pancreatic cancer cells) cell lines were purchased from the American Tissue Culture Collection (Manassas, VA, USA). The UACC-62 melanoma cell line was purchased from AddexBio (San Diego, CA; Cat #C0020003). All cell lines were regularly authenticated. All cell lines were grown at 37° C. in 5% carbon dioxide. The U87MG, A549, and UACC-62 cells were maintained in Roswell Park Memorial Institute Medium 1640 medium (Thermo Fisher Scientific, Waltham, MA, USA; Cat #11875) supplemented with 10% fetal bovine serum. MiaPaCa-2 cells were maintained in Dulbecco's Modified Eagle Medium (Thermo Fisher Scientific, Waltham, MA, USA; Cat #11965) and supplemented with 10% fetal bovine serum. All cells were stored in liquid nitrogen and used within 20 passages after thawing.
The IncuCyte Live-Cell Analysis System was used to continuously monitor cell proliferation, as described in earlier publications.

[3] = test system: pancreatic cancer (MiaPaCa-2) cells; test: IncuCyte cell proliferation, pancreatic cancer cells; type: cell-based, human; details: comparison within pair
Protocol: as §1
as §2, with “mean±SD. […]” for “mean±SD.”

lung cancer (A549) cells = test: IncuCyte cell proliferation, lung cancer cells; type: cell-based, human; details: comparison within pair
Protocol: as §1
as §2, with “mean±SD. […]” for “mean±SD.”

melanoma (UACC-62) cells = test: IncuCyte cell proliferation, melanoma cells; type: cell-based; details: dose-dependent
Protocol: FIGS. 5A-5B show effects of MGN and MGN-B on the proliferation of melanoma cancer (UACC-62) cells. The effects of MGN and MGN-B on the proliferation of UACC-62 cells were monitored in the IncuCyte Live-Cell Analysis system. The IncuCyte analyzer provides real-time updates on cell confluence based on segmentation of high definition-phase contrast images. The IC50 values were determined at the point at which control cells reached ~90% confluence. Relative cell confluence (control is taken as 100%) is plotted against concentration. Dashed lines in FIG. 5B represent the fitting curves used to determine the IC50 values as indicated for MGN and MGN-B. Data shown are the mean±SD.
as §3, with “MiaPaCa-2 cells were maintained in Dulbecco's Modified Eagle Medium (Thermo Fisher Scientific, Waltham, MA, USA; Cat #11965) and supplemented with 10% fetal bovine serum. All cells were stored in liquid nitrogen and used within 20 passages after thawing.” left out

[4] = test system: granulocytic-myeloid-derived suppressor cells (G-MDSCs) and regulatory T cells (Tregs); details: cited from earlier work
[5] = Oxidation of boronates by ONOO−, HPLC; type: physicochemical; details: in the presence of ONOO−
Protocol: (§4) All samples were incubated at room temperature in aqueous solution containing phosphate buffer (0.1 M, pH 7.4) and DTPA (10 μM). Absorption traces recorded using UV absorption detection at 260 nm.
(§5) High-performance liquid chromatography (HPLC) analysis was performed using an Agilent 1200 apparatus equipped with ultraviolet-visible spectroscopy absorption and a mass spectrometry detector (single quadrupole).
(§6) In the studies on the reaction profile of ONOO oxidation of Mito-HNK-B and derivatives, 2 μL of sample was injected into the HPLC system equipped with a C18 column (Phenomenex, Kinetex Evo, 100×2.1 mm, 1.7 μm) equilibrated with 5% MeCN containing 0.1% (v/v) formic acid. The compounds were separated by a linear increase in MeCN phase concentration from 5% to 100% over 8 min and until 15 min at 100% MeCN using a flow rate of 0.21 mL/min. The peak areas detected by monitoring the absorption at 260 nm were used for the quantitation.
(§7) The stock solutions of oxidants (HOCl and H2O2) were prepared freshly before each experiment; their concentrations were determined by spectrophotometry by reacting nitrite with H2O2, using the procedure described previously. […] Immediately prior to each experiment, the concentration of ONOO was determined spectrally at 302 nm (ε=1.7× 103 M^−1 cm^−1) after dilution in 0.1 M sodium hydroxide to ~10 mM concentration. […]

[6] = Oxidation of boronates by H2O2, HPLC; type: physicochemical
Protocol: as §4, §5, §6, §7

[7] = Hydrolysis of pinacolate ester in aqueous phosphate buffer, HPLC; type: physicochemical; details: upon dilution in aqueous phosphate buffer
Protocol: Stock solutions of HNK-B, HNK-B^2, and Mito-HNK-B were prepared in dimethyl sulfoxide at a 10 mM concentration and this solution was added directly to the buffer to obtain the desired concentration. […] Thus, the boronic acid species were tested with the oxidants. When studying HNK-B and Mito-HNK-B oxidations by HOCl, stock solutions (10 mM) in MeCN were added to the phosphate buffer (100 mM, pH 7.4) to obtain a final concentration of the probe of 500 μM. Dimethyl sulfoxide solvent was avoided due to known rapid quenching of HOCl by dimethyl sulfoxide.

kidney = details: in vivo; cited from earlier work
lung tumors = details: mice xenografts; cited from earlier work
NOX2 = target: T1, NOX2 (Homo sapiens, UniProt P04839); test: Oxidant formation from NOX2; details: preliminary results
T1 sequence (P04839 2-570 limits assumed): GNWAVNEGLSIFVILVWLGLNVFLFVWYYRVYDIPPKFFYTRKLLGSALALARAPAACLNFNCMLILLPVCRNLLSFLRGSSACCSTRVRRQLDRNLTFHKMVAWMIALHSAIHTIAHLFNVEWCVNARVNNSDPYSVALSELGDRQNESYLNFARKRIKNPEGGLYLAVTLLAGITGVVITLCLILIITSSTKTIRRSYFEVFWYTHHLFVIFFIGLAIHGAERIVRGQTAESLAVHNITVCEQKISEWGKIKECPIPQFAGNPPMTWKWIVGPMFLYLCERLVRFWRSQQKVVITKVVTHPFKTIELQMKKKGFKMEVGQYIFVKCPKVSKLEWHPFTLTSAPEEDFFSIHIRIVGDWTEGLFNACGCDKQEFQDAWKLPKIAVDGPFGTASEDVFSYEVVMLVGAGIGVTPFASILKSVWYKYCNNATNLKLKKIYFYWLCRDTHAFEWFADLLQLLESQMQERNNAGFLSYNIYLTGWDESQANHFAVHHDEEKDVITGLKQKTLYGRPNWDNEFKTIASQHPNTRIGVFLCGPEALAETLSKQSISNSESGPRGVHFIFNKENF

[8] = not told; cited from earlier work

Compound: NC(=O)c1c(COC(=O)c2ccccc2O)no[n+]1[O-] [AT38, 3-(aminocarbonyl) furoxan-4-yl) methyl salicylate]
- chemokine nitration [1]: mitigated chemokine nitration
- expression of arginase-1 and NOS-2 (or iNOS) in myeloid cells in the TME [1]: inhibited the expression

Compound: C=CCc1ccc(O)c(-c2ccc(O)c(CC=C)c2)c1 [HNK, honokiol]
- antiproliferative effect, boronate versus non-boronated analog [2]: nearly the same
- antiproliferative effect, boronate versus non-boronated analog [3]: nearly the same
- antiproliferative effect, boronate versus non-boronated analog (lung cancer (A549) cells): nearly the same

Compound: C=CCc1ccc(O)c(-c2cc(CC=C)ccc2O)c1 [MGN, magnolol]
- effect on proliferation (melanoma (UACC-62) cells): decreasing the proliferation

Compound: C=CCc1ccc(O)c(-c2cc(CC=C)ccc2OCc2ccc(B3OC(C)(C)C(C)(C)O3)cc2)c1 [MGN-B, Magnolol boronate]
- antiproliferative effect, boronate versus non-boronated analog [2]: increased the potency
- effect on proliferation (melanoma (UACC-62) cells): decreasing the proliferation

Compound: O=C1C(OCCCCCCCCCC[P+](c2ccccc2)(c2ccccc2)c2ccccc2)=C(C2CCC(c3ccc(Cl)cc3)CC2)C(=O)c2ccccc21 (stereo not drawn) [Mito-ATO, Mitochondria-targeted atovaquone]
- G-MDSCs and Tregs in the TME ([4]; flow cytometry analysis): significant decreases
- T cell immune responses locally and in distant tumor sites ([4]; intratumoral injection into primary tumors, spontaneous tumor model): triggered potent T cell immune responses

Compound: Mitochondria-targeted honokiol boronate [Mito-HNK-B]
- antiproliferative effect, boronate versus non-boronated analog [2]: slightly more potent; also recorded: nearly the same
- oxidation to HNK / Mito-HNK [5]: rapidly oxidized
- antiproliferative effect, boronate versus non-boronated analog [3]: nearly the same
- antiproliferative effect, boronate versus non-boronated analog (lung cancer (A549) cells): nearly the same
- conversion of boronate to parent polyphenol ([6]; at higher concentrations of H2O2): increased
- conversion of boronate to parent polyphenol (HNK or Mito-HNK) ([6]; in the presence of H2O2 (500 μM), boronate 500 μM, phosphate buffer 0.1 M pH 7.4, room temperature): 37%
- hydrolysis of pinacolate ester to the corresponding boronic acid [7]: fast hydrolysis

Compound: Mitochondria-targeted magnolol boronate [Mito-MGN-B]
- antiproliferative potency of TPP+ conjugate compared with parent compounds MGN/MGN-B [2]: increased their antiproliferative potencies
- antiproliferative effect, boronate versus non-boronated analog [2]: slightly more potent

Compound: mitochondria-targeted carboxy-proxyl [Mito-CP]
- cisplatin-induced renal toxicity (kidney): inhibited cisplatin-induced renal toxicity

Compound: mitochondria-targeted honokiol [Mito-HNK]
- antiproliferative effect, boronate versus non-boronated analog [2]: nearly the same
- antiproliferative effect, boronate versus non-boronated analog [3]: nearly the same
- metastasis of lung tumors to the brain (lung tumors): inhibited metastasis
- antiproliferative effect, boronate versus non-boronated analog (lung cancer (A549) cells): nearly the same
- oxidant formation from NOX2 (NOX2): inhibits oxidant formation
- blood-brain-barrier permeability [8]: showed blood-brain-barrier permeability

Compound: mitochondria-targeted magnolol [Mito-MGN]
- antiproliferative potency of TPP+ conjugate compared with parent compounds MGN/MGN-B [2]: increased their antiproliferative potencies
